Measured values: patent US9108903B2, “Amides as modulators of sodium channels” (VERTEX PHARMACEUTICALS INCORPORATED, priority 2013, dated 2015)

Biological target: human Nav1.8 (Homo sapiens (Human), UniProt Q9Y5Y9)
Experiment: E-VIPR optical membrane potential assay with electrical stimulation
Type: cell-based
Details: HEK cells expressing human Nav1.8
From the text: Assays for Detecting and Measuring NaV Inhibition Properties of Compounds E-VIPR Optical Membrane Potential Assay Method with Electrical Stimulation
Sodium channels are voltage-dependent proteins that can be activated by inducing membrane voltage changes by applying electric fields. The electrical stimulation instrument and methods of use are described in Ion Channel Assay Methods PCT/US01/21652, herein incorporated by reference and are referred to as E-VIPR. The instrument comprises a microtiter plate handler, an optical system for exciting the coumarin dye while simultaneously recording the coumarin and oxonol emissions, a waveform generator, a current- or voltage-controlled amplifier, and a device for inserting electrodes in well. Under integrated computer control, this instrument passes user-programmed electrical stimulus protocols to cells within the wells of the microtiter plate.
24 hours before the assay on E-VIPR, HEK cells expressing human Nav1.8 were seeded in 384-well poly-lysine coated plates at 15,000-20,000 cells per well. HEK cells were grown in media (exact composition is specific to each cell type and NaV subtype) supplemented with 10% FBS (Fetal Bovine Serum, qualified; GibcoBRL #16140-071) and 1% Pen-Strep (Penicillin-Streptomycin; GibcoBRL #15140-122). Cells were grown in vented cap flasks, in 90% humidity and 5% CO2.
100 mg/mL Pluronic F-127 (Sigma #P2443), in dry DMSO
Compound Plates: 384-well round bottom plate, e.g. Corning 384-well Polypropylene Round Bottom #3656
Cell Plates: 384-well tissue culture treated plate, e.g. Greiner #781091-1B
Bath1 buffer: Glucose 10 mM (1.8 g/L), Magnesium Chloride (Anhydrous), 1 mM (0.095 g/L), Calcium Chloride, 2 mM (0.222 g/L), HEPES 10 mM (2.38 g/L), Potassium Chloride, 4.5 mM (0.335 g/L), Sodium Chloride 160 mM (9.35 g/L).
Hexyl Dye Solution: Bath1 Buffer+0.5% β-cyclodextrin (make this prior to use, Sigma #C4767), 8 μM CC2-DMPE+2.5 μM DiSBAC6(3). To make the solution added volume of 10% Pluronic F127 stock equal to volumes of CC2-DMPE+DiSBAC6(3). The order of preparation was first mix Pluronic and CC2-DMPE, then added DiSBAC6(3) while vortexing, then added Bath1+β-Cyclodextrin.
1) Pre-spotted compounds (in neat DMSO) into compound plates. Vehicle control (neat DMSO), the positive control (20 mM DMSO stock tetracaine, 125 μM final in assay) and test compounds were added to each well at 160× desired final concentration in neat DMSO. Final compound plate volume was 80 μL (80-fold intermediate dilution from 1 μL DMSO spot; 160-fold final dilution after transfer to cell plate). Final DMSO concentration for all wells in assay was 0.625%.
2) Prepared Hexyl Dye Solution.
3) Prepared cell plates. On the day of the assay, medium was aspirated and cells were washed three times with 100 μL of Bath1 Solution, maintaining 25 μL residual volume in each well.
4) Dispensed 25 μL per well of Hexyl Dye Solution into cell plates. Incubated for 20-35 minutes at room temp or ambient conditions.
5) Dispensed 80 μL per well of Bath1 into compound plates. Acid Yellow-17 (1 mM) was added and Potassium Chloride was altered from 4.5 to 20 mM depending on the NaV subtype and assay sensitivity.
6) Washed cell plates three times with 100 μL per well of Bath1, leaving 25 μL of residual volume. Then transfered 25 uL per well from Compound Plates to Cell Plates. Incubated for 20-35 minutes at room temp/ambient condition.
7) Read Plate on E-VIPR. Used the current-controlled amplifier to deliver stimulation wave pulses for 10 seconds and a scan rate of 200 Hz. A pre-stimulus recording was performed for 0.5 seconds to obtain the un-stimulated intensities baseline. The stimulatory waveform was followed by 0.5 seconds of post-stimulation recording to examine the relaxation to the resting state.
Data was analyzed and reported as normalized ratios of emission intensities measured in the 460 nm and 580 nm channels. The response as a function of time was reported as the ratios obtained using the following formula: […]

Sequence of human Nav1.8 (Q9Y5Y9 whole entry): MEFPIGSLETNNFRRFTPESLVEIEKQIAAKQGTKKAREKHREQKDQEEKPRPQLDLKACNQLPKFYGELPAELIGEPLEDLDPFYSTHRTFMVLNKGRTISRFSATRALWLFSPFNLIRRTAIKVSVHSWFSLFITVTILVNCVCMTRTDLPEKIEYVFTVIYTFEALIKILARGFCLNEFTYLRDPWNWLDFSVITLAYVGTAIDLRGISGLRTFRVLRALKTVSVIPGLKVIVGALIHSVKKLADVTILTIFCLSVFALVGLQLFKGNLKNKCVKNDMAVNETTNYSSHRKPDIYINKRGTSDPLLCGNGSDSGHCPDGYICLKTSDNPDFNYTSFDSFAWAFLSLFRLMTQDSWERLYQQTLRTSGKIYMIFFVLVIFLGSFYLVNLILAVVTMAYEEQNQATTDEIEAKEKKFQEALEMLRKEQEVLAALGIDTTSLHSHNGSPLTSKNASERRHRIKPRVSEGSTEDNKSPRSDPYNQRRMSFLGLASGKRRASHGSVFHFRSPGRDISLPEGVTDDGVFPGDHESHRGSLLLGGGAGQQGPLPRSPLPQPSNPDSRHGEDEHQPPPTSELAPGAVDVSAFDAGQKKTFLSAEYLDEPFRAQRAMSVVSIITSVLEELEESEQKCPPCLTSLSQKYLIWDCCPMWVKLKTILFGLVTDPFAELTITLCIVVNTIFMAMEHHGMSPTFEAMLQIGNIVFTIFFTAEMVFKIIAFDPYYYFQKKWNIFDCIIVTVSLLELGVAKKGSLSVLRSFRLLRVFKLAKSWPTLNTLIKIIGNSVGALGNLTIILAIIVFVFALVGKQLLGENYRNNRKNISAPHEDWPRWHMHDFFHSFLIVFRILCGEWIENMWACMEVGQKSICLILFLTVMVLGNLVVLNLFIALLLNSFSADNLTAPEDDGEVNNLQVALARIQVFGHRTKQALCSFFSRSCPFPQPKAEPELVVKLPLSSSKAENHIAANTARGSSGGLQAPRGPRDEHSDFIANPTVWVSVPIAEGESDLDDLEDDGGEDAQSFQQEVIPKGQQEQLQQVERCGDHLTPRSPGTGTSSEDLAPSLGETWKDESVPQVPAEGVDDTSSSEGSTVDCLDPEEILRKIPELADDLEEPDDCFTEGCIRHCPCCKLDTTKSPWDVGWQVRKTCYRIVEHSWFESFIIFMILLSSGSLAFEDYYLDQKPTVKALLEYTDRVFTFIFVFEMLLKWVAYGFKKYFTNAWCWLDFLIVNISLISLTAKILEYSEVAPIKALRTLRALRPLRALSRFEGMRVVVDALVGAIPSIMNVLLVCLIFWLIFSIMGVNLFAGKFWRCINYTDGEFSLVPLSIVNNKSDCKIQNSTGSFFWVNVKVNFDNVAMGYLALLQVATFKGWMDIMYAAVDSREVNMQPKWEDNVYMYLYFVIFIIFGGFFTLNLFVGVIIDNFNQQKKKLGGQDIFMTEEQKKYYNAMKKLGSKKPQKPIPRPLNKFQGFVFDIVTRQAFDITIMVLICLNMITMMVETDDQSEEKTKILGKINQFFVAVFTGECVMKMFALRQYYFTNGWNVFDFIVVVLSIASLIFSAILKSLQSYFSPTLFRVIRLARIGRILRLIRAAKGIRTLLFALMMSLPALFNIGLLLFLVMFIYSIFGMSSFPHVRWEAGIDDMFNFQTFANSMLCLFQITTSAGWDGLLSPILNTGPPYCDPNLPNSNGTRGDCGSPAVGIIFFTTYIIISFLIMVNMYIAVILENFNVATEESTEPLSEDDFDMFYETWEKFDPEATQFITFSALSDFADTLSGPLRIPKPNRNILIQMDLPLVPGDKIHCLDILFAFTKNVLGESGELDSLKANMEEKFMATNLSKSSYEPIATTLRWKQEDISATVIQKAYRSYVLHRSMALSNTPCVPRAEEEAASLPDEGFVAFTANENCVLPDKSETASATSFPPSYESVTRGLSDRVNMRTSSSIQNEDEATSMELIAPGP

**Q.** With `Cc1cc(F)ccc1Oc1cc(C(F)(F)F)ccc1C(=O)Nc1ccc(C(=O)O)cc1` [Compound 5, 4-(2-(4-fluoro-2-methylphenoxy)-4-(trifluoromethyl)benzamido)benzoic acid] as the compound, how does the IC50 read?
**A.** 60 nM

**Q.** With `O=C(O)c1ccc(NC(=O)c2ccccc2Oc2ccc(F)cc2)cn1` [Compound 55, 5-(2-(4-fluorophenoxy)benzamido)picolinic acid] as the compound, how does the IC50 read?
**A.** 4350 nM

**Q.** How did the IC50 turn out when `Cc1cc(F)ccc1Oc1cc(C(F)(F)F)cc(C(F)(F)F)c1C(=O)Nc1ccc(C(=O)O)cc1` [Compound 9, 4-(2-(4-fluoro-2-methylphenoxy)-4,6-bis(trifluoromethyl)benzamido)benzoic acid] was run?
**A.** 130 nM

**Q.** How did the IC50 turn out when `COc1ccc(Oc2cc(Cl)c(Cl)cc2C(=O)Nc2ccc(C(=O)O)cc2)c(F)c1` [Compound 16, 4-(4,5-dichloro-2-(2-fluoro-4-methoxyphenoxy)benzamido)benzoic acid] was run?
**A.** 115 nM

**Q.** For `COc1ccc(Oc2cc(Cl)c(Cl)cc2C(=O)Nc2ccc(C(=O)O)cc2)cc1F` [Compound 22, 4-(4,5-dichloro-2-(3-fluoro-4-methoxyphenoxy)benzamido)benzoic acid], which IC50 is on record?
**A.** 78 nM

**Q.** Which IC50 does the source give for `O=C(O)c1ccc(NC(=O)c2c(Oc3ccc(F)cc3F)cc(C(F)(F)F)cc2C(F)(F)F)cc1` [Compound 8, 4-(2-(2,4-difluorophenoxy)-4,6-bis(trifluoromethyl)benzamido)benzoic acid] here?
**A.** 405 nM

**Q.** How did the IC50 turn out when `O=C(O)c1ccc(NC(=O)c2cc(Cl)c(Cl)cc2Oc2ccccc2OC(F)F)cc1` [Compound 19, 4-(4,5-dichloro-2-(2-(difluoromethoxy)phenoxy)benzamido)benzoic acid] was run?
**A.** 66 nM

**Q.** How did the IC50 turn out when `CC(C)(C)c1ccc(C(=O)Nc2ccc(C(=O)O)nc2)c(Oc2ccc(F)cc2)c1` [Compound 54, 5-(4-(tert-butyl)-2-(4-fluorophenoxy)benzamido)picolinic acid] was run?
**A.** 180 nM

**Q.** With `COc1cc(F)ccc1Oc1cc(C(C)(C)C)ccc1C(=O)Nc1ccc(C(=O)O)nc1` [Compound 52, 5-(4-(tert-butyl)-2-(4-fluoro-2-methoxyphenoxy)benzamido)picolinic acid] as the compound, how does the IC50 read?
**A.** 31 nM

**Q.** With `O=C(O)c1ccc(NC(=O)c2cc(Cl)c(Cl)cc2Oc2ccc(F)cc2Cl)cc1` [Compound 23, 4-(4,5-dichloro-2-(2-chloro-4-fluorophenoxy)benzamido)benzoic acid] as the compound, how does the IC50 read?
**A.** 33 nM

**Q.** How did the IC50 turn out when `O=C(O)c1ccc(NC(=O)c2ccc(C(F)(F)F)cc2Oc2ccc(F)cc2F)cc1` [Compound 6, 4-(2-(2,4-difluorophenoxy)-4-(trifluoromethyl)benzamido)benzoic acid] was run?
**A.** 145 nM

**Q.** `COc1ccc(Oc2cc(Cl)c(Cl)cc2C(=O)Nc2ccc(C(=O)O)nc2)c(Cl)c1` [Compound 43, 5-(4,5-dichloro-2-(2-chloro-4-methoxyphenoxy)benzamido)picolinic acid] was tested. Which IC50 did it give?
**A.** 65 nM

**Q.** How did the IC50 turn out when `Cc1cc(F)ccc1Oc1cc(Cl)c(Cl)cc1C(=O)Nc1ccc(C(=O)O)cc1` [Compound 14, 4-(4,5-dichloro-2-(4-fluoro-2-methylphenoxy)benzamido)benzoic acid] was run?
**A.** 15 nM

**Q.** Which IC50 does the source give for `Cc1cc(F)ccc1Oc1cc(C(F)(F)F)cc(C(F)(F)F)c1C(=O)Nc1ccc(C(=O)O)nc1` [Compound 47, 5-(2-(4-fluoro-2-methylphenoxy)-4,6-bis(trifluoromethyl)benzamido)picolinic acid] here?
**A.** 42 nM

**Q.** `COc1ccc(F)cc1Oc1ccc(C(F)(F)F)cc1C(=O)Nc1ccc(C(=O)O)nc1` [Compound 59, 5-(2-(5-fluoro-2-methoxyphenoxy)-5-(trifluoromethyl)benzamido)picolinic acid] was tested. Which IC50 did it give?
**A.** 740 nM

**Q.** With `O=C(O)c1ccc(NC(=O)c2cc(Cl)c(Cl)cc2Oc2ccccc2OC(F)F)cn1` [Compound 37, 5-(4,5-dichloro-2-(2-(difluoromethoxy)phenoxy)benzamido)picolinic acid] as the compound, how does the IC50 read?
**A.** 46 nM

**Q.** How did the IC50 turn out when `O=C(O)c1ccc(NC(=O)c2cc(C(F)(F)F)ccc2Oc2ccccc2Cl)cn1` [Compound 63, 5-(2-(2-chlorophenoxy)-5-(trifluoromethyl)benzamido)picolinic acid] was run?
**A.** 430 nM

**Q.** Which IC50 does the source give for “4-(4,5-dichloro-2-(4-fluoro-2-methoxyphenoxy)benzamido)picolinic acid [Compound 76]” here?
**A.** 12 nM

**Q.** `O=C(O)c1ccc(NC(=O)c2cc(Cl)c(Cl)cc2Oc2ccc(OCC(F)(F)F)cc2)cc1` [Compound 17, 4-(4,5-dichloro-2-(4-(2,2,2-trifluoroethoxy)phenoxy)benzamido)benzoic acid] was tested. Which IC50 did it give?
**A.** 62 nM

**Q.** With `O=C(O)c1ccc(NC(=O)c2cc(Cl)c(Cl)cc2Oc2ccc(F)cc2F)cc1` [Compound 24, 4-(4,5-dichloro-2-(2,4-difluorophenoxy)benzamido)benzoic acid] as the compound, how does the IC50 read?
**A.** 53 nM

**Q.** `Cc1cc(F)ccc1Oc1cc(C(C)(C)C)ccc1C(=O)Nc1ccc(C(=O)O)nc1` [Compound 53, 5-(4-(tert-butyl)-2-(4-fluoro-2-methylphenoxy)benzamido)picolinic acid] was tested. Which IC50 did it give?
**A.** 46 nM

**Q.** With `O=C(O)c1ccc(NC(=O)c2ccc(C(F)(F)F)cc2Oc2ccc(OC(F)(F)F)cc2)cc1` [Compound 7, 4-(2-(4-(trifluoromethoxy)phenoxy)-4-(trifluoromethyl)benzamido)benzoic acid] as the compound, how does the IC50 read?
**A.** 37 nM

**Q.** For `COc1ccc(Oc2cc(C(F)(F)F)cc(C(F)(F)F)c2C(=O)Nc2ccc(C(=O)O)nc2)c(OC)c1` [Compound 49, 5-(2-(2,4-dimethoxyphenoxy)-4,6-bis(trifluoromethyl)benzamido)picolinic acid], which IC50 is on record?
**A.** 6 nM

**Q.** With `O=C(O)c1ccc(NC(=O)c2cc(C(F)(F)F)ccc2Oc2ccccc2OC(F)F)cn1` [Compound 60, 5-(2-(2-(difluoromethoxy)phenoxy)-5-(trifluoromethyl)benzamido)picolinic acid] as the compound, how does the IC50 read?
**A.** 650 nM

**Q.** How did the IC50 turn out when `O=C(O)c1ccc(NC(=O)c2c(Oc3ccc(F)cc3)cc(C(F)(F)F)cc2C(F)(F)F)cn1` [Compound 50, 5-(2-(4-fluorophenoxy)-4,6-bis(trifluoromethyl)benzamido)picolinic acid] was run?
**A.** 130 nM

**Q.** How did the IC50 turn out when `COc1cc(F)ccc1Oc1cc(C(F)(F)C(F)(F)F)ccc1C(=O)Nc1ccc(C(=O)O)nc1` [Compound 72, 5-(2-(4-fluoro-2-methoxyphenoxy)-4-(perfluoroethyl)benzamido)picolinic acid] was run?
**A.** 35 nM

**Q.** Which IC50 does the source give for `COc1cc(Cl)ccc1Oc1cc(Cl)c(Cl)cc1C(=O)Nc1ccc(C(=O)O)nc1` [Compound 36, 5-(4,5-dichloro-2-(4-chloro-2-methoxyphenoxy)benzamido)picolinic acid] here?
**A.** 39 nM

**Q.** With `COc1ccc(Oc2ccc(C(F)(F)F)cc2C(=O)Nc2ccc(C(=O)O)nc2)c(Cl)c1` [Compound 68, 5-(2-(2-chloro-4-methoxyphenoxy)-5-(trifluoromethyl)benzamido)picolinic acid] as the compound, how does the IC50 read?
**A.** 135 nM

**Q.** Which IC50 does the source give for `COc1ccc(Oc2cc(Cl)c(Cl)cc2C(=O)Nc2ccc(C(=O)O)nc2)cc1F` [Compound 40, 5-(4,5-dichloro-2-(3-fluoro-4-methoxyphenoxy)benzamido)picolinic acid] here?
**A.** 34 nM

**Q.** How did the IC50 turn out when `COc1c(F)cccc1Oc1ccc(C(F)(F)F)cc1C(=O)Nc1ccc(C(=O)O)nc1` [Compound 69, 5-(2-(3-fluoro-2-methoxyphenoxy)-5-(trifluoromethyl)benzamido)picolinic acid] was run?
**A.** 135 nM

**Q.** `COc1cc(F)ccc1Oc1cc(C(F)(F)F)cc(C(F)(F)F)c1C(=O)Nc1ccc(C(=O)O)nc1` [Compound 48, 5-(2-(4-fluoro-2-methoxyphenoxy)-4,6-bis(trifluoromethyl)benzamido)picolinic acid] was tested. Which IC50 did it give?
**A.** 14 nM

**Q.** Which IC50 does the source give for `O=C(O)c1ccc(NC(=O)c2c(Oc3ccc(F)cc3Cl)cccc2C(F)(F)F)cn1` [Compound 74, 5-(2-(2-chloro-4-fluorophenoxy)-6-(trifluoromethyl)benzamido)picolinic acid] here?
**A.** 405 nM
